{
  "source": "patent US6909023B2",
  "about": "“Production method for benzenedimethanol compound” (Showa Denko K.K., priority 2000, dated 2005)",
  "assay": "solubility in water at room temperature",
  "data": [
    {"smiles": "OCc1c(F)c(F)c(CO)c(F)c1F", "note": "[2,3,5,6-tetrafluorobenzenedimethanol]", "values": [
      {"measurement": "solubility in water", "value": "about 25 g/L"}
    ]}
  ]
}
